Experimental data: PubChem BioAssay (NCI)
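GI50 marks 50% less growth. TGI marks complete inhibition of growth.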

Tests used:
Assay in all cases: NCI tumour cell line growth inhibition, 384-well format
SW-620 colon = test system: SW-620 colon
TK-10 renal = test system: TK-10 renal
HCC-2998 colon = test system: HCC-2998 colon
CAKI-1 renal = test system: CAKI-1 renal
SN12C renal = test system: SN12C renal
UACC-62 melanoma = test system: UACC-62 melanoma
BT-549 breast = test system: BT-549 breast
RPMI-8226 leukemia = test system: RPMI-8226 leukemia
MDA-MB-468 breast = test system: MDA-MB-468 breast
HL-60(TB) leukemia = test system: HL-60(TB) leukemia
MOLT-4 leukemia = test system: MOLT-4 leukemia
A498 renal = test system: A498 renal
NCI/ADR-RES ovarian = test system: NCI/ADR-RES ovarian
MDA-MB-435 melanoma = test system: MDA-MB-435 melanoma
HOP-62 NSCLC = test system: HOP-62 NSCLC
T-47D breast = test system: T-47D breast
SK-MEL-5 melanoma = test system: SK-MEL-5 melanoma
IGROV1 ovarian = test system: IGROV1 ovarian
COLO 205 colon = test system: COLO 205 colon
U251 glioblastoma = test system: U251 glioblastoma
HT29 colon = test system: HT29 colon
NCI-H460 NSCLC = test system: NCI-H460 NSCLC
OVCAR-4 ovarian = test system: OVCAR-4 ovarian
M14 melanoma = test system: M14 melanoma
MDA-MB-231 breast = test system: MDA-MB-231 breast
ACHN renal = test system: ACHN renal
KM12 colon = test system: KM12 colon
SK-MEL-28 melanoma = test system: SK-MEL-28 melanoma
SF-268 CNS = test system: SF-268 CNS
NCI-H322M lung = test system: NCI-H322M lung
DU-145 prostate = test system: DU-145 prostate
A549 NSCLC = test system: A549 NSCLC
786-0 renal = test system: 786-0 renal
HOP-92 NSCLC = test system: HOP-92 NSCLC
MALME-3M melanoma = test system: MALME-3M melanoma
OVCAR-5 ovarian = test system: OVCAR-5 ovarian
SF-539 CNS = test system: SF-539 CNS
NCI-H23 lung = test system: NCI-H23 lung
CCRF-CEM leukemia = test system: CCRF-CEM leukemia
OVCAR-8 ovarian = test system: OVCAR-8 ovarian
UACC-257 melanoma = test system: UACC-257 melanoma
K-562 leukemia = test system: K-562 leukemia
SK-MEL-2 melanoma = test system: SK-MEL-2 melanoma
MCF7 breast = test system: MCF7 breast
LOX IMVI melanoma = test system: LOX IMVI melanoma
OVCAR-3 ovarian = test system: OVCAR-3 ovarian
SR leukemia = test system: SR leukemia
HCT-116 colon = test system: HCT-116 colon
NCI-H522 lung = test system: NCI-H522 lung
SNB-19 CNS = test system: SNB-19 CNS
HCT-15 colon = test system: HCT-15 colon
RXF 393 renal = test system: RXF 393 renal
SK-OV-3 ovarian = test system: SK-OV-3 ovarian
PC-3 prostate = test system: PC-3 prostate
SF-295 CNS = test system: SF-295 CNS
UO-31 renal = test system: UO-31 renal
NCI-H226 lung = test system: NCI-H226 lung

Nc1ccc(/C=C/C(=O)NCc2cc3cc(-c4ccc(C(=O)N5CCC(F)(F)CC5)cc4)cc(-c4ccc(F)cc4)c3o2)cn1
GI50 (SW-620 colon): 23.9 nM | TGI (SW-620 colon): 53.4 nM | GI50 (TK-10 renal): 210 nM | TGI (TK-10 renal): 404 nM | GI50 (HCC-2998 colon): 114 nM | TGI (HCC-2998 colon): 270 nM | GI50 (CAKI-1 renal): 120 nM | TGI (CAKI-1 renal): 282 nM | GI50 (SN12C renal): 17.6 nM | TGI (SN12C renal): 32 nM | GI50 (UACC-62 melanoma): 206 nM | TGI (UACC-62 melanoma): 427 nM | GI50 (BT-549 breast): 211 nM | TGI (BT-549 breast): 461 nM | GI50 (RPMI-8226 leukemia): 58.7 nM | TGI (RPMI-8226 leukemia): 191 nM | GI50 (MDA-MB-468 breast): 190 nM | TGI (MDA-MB-468 breast): 384 nM | GI50 (HL-60(TB) leukemia): 22.8 nM | TGI (HL-60(TB) leukemia): 37.6 nM | GI50 (MOLT-4 leukemia): 21.9 nM | TGI (MOLT-4 leukemia): 39.2 nM | GI50 (A498 renal): 2270 nM | TGI (A498 renal): 33400 nM | GI50 (NCI/ADR-RES ovarian): 307 nM | TGI (NCI/ADR-RES ovarian): 1140 nM | GI50 (MDA-MB-435 melanoma): 146 nM | TGI (MDA-MB-435 melanoma): 283 nM | GI50 (HOP-62 NSCLC): 65.6 nM | TGI (HOP-62 NSCLC): 242 nM | GI50 (T-47D breast): 20.1 nM | TGI (T-47D breast): 50.6 nM | GI50 (SK-MEL-5 melanoma): 174 nM | TGI (SK-MEL-5 melanoma): 360 nM | GI50 (IGROV1 ovarian): 131 nM | TGI (IGROV1 ovarian): 265 nM | GI50 (COLO 205 colon): 22.7 nM | TGI (COLO 205 colon): 53.4 nM | GI50 (U251 glioblastoma): 35.6 nM | TGI (U251 glioblastoma): 148 nM | GI50 (HT29 colon): 331 nM | TGI (HT29 colon): 985 nM | GI50 (NCI-H460 NSCLC): 437 nM | TGI (NCI-H460 NSCLC): 1570 nM | GI50 (OVCAR-4 ovarian): 212 nM | TGI (OVCAR-4 ovarian): 472 nM | GI50 (M14 melanoma): 328 nM | TGI (M14 melanoma): 1390 nM | GI50 (MDA-MB-231 breast): 549 nM | TGI (MDA-MB-231 breast): 1950 nM | GI50 (ACHN renal): 121 nM | TGI (ACHN renal): 348 nM | GI50 (KM12 colon): 58.6 nM | TGI (KM12 colon): 210 nM | GI50 (SK-MEL-28 melanoma): 223 nM | TGI (SK-MEL-28 melanoma): 410 nM | GI50 (SF-268 CNS): 175 nM | TGI (SF-268 CNS): 325 nM | GI50 (NCI-H322M lung): 34.7 nM | TGI (NCI-H322M lung): 139 nM | GI50 (DU-145 prostate): 259 nM | TGI (DU-145 prostate): 641 nM | GI50 (A549 NSCLC): 252 nM | TGI (A549 NSCLC): 699 nM | GI50 ([…]-0 renal): 117 nM | TGI (786-0 renal): 249 nM | GI50 (HOP-92 NSCLC): 441 nM | TGI (HOP-92 NSCLC): 1830 nM | GI50 (MALME-3M melanoma): 374 nM | TGI (MALME-3M melanoma): 916 nM | GI50 (OVCAR-5 ovarian): 21.5 nM | TGI (OVCAR-5 ovarian): 44 nM | GI50 (SF-539 CNS): 15.5 nM | TGI (SF-539 CNS): 30.3 nM | GI50 (NCI-H23 lung): 218 nM | TGI (NCI-H23 lung): 430 nM | GI50 (CCRF-CEM leukemia): 21.4 nM | TGI (CCRF-CEM leukemia): 37.2 nM | GI50 (OVCAR-8 ovarian): 16.8 nM | TGI (OVCAR-8 ovarian): 32.8 nM | GI50 (UACC-257 melanoma): 504 nM | TGI (UACC-257 melanoma): 2910 nM | GI50 (K-562 leukemia): 33.3 nM | TGI (K-562 leukemia): 175 nM | GI50 (SK-MEL-2 melanoma): 41.4 nM | TGI (SK-MEL-2 melanoma): 108 nM | GI50 (MCF7 breast): 213 nM | TGI (MCF7 breast): 485 nM | GI50 (LOX IMVI melanoma): 567 nM | TGI (LOX IMVI melanoma): 2020 nM | GI50 (OVCAR-3 ovarian): 53.9 nM | TGI (OVCAR-3 ovarian): 217 nM | GI50 (SR leukemia): 1330 nM | TGI (SR leukemia): 2690 nM | GI50 (HCT-116 colon): 20.6 nM | TGI (HCT-116 colon): 40.7 nM | GI50 (NCI-H522 lung): 18.1 nM | TGI (NCI-H522 lung): 34.8 nM | GI50 (SNB-19 CNS): 28 nM | TGI (SNB-19 CNS): 82 nM | GI50 (HCT-15 colon): 250 nM | TGI (HCT-15 colon): 741 nM | GI50 (RXF 393 renal): 105 nM | TGI (RXF 393 renal): 255 nM | GI50 (SK-OV-3 ovarian): 20.9 nM | TGI (SK-OV-3 ovarian): 49.1 nM | GI50 (PC-3 prostate): 48.1 nM | TGI (PC-3 prostate): 165 nM | GI50 (SF-295 CNS): 188 nM | TGI (SF-295 CNS): 368 nM | GI50 (UO-31 renal): 52.3 nM | TGI (UO-31 renal): 174 nM | GI50 (NCI-H226 lung): 7380 nM | TGI (NCI-H226 lung): > 100000 nM
